Entries after “also recorded” stand apart in the source; their conditions may differ.
Assays:
Format in all cases: cell-based
SW480 cells = experiment: 3D hyaluronan-based hydrogel construct drug screen, MTS assay; details: Homo sapiens
Protocol: (§1) Polydimethylsiloxane, or PDMS, was used to coat the bottom of the wells. Cells were embedded within the hyaluronan-based hydrogel and were given 5 days to acclimate to their three-dimensional environment and on day 5 were administered different anticancer drug solutions (FIG. 7, panel A). […] At 100 μM concentrations of Regorafenib and Sorafenib, cellular viability remained below 25% that of the control for all four of the colorectal cancer cell lines utilized. The only exception to this was when 100 μM Regorafenib was administered to CACO2 cells and the percent relative cell viability rose to approximately 48%. […] At a 100 μM concentration, Dabrafenib had greater efficacy in targeting the HCT116 and SW480 cell lines, which had relative cellular viability values of 38% and 43%, as opposed to the HT29 and CACO2 cell lines, which had higher cell viability values of 93% and 75%. 100 μM concentrations of Trametinib produced relative cellular viability results that fell within a narrow range for the four colorectal cell lines with values of 54% for SW480 cells and 74% for HT29 cells.
(§2) Well Coating with PDMS and Cell Isolation: Polydimethylsiloxane, or PDMS, (DOW Corning, North Carolina, USA) was used at a 1:10 curing agent ratio to coat the bottom of the 96-well plates and the plates were then placed in a 80° C. oven for at least one hour. Cells were passaged in the same methods previously mentioned (A) with the desire to place 10 μL 3D hyaluronan-based hydrogel constructs containing 100,000 cells each ([…]) into the wells of a 96-wells plate for all four colorectal cancer cell types. Depending on the cell count, a desired number of cells were isolated in new 15 mL centrifuge tubes as cell-media solution and underwent centrifugation.
(§3) Hydrogel Components of the Single-Cell Type Constructs: The hyaluronic acid-based hydrogel (ESI BIO, California, USA) was produced using a mixture of three components: Heprasil, Gelin-S, and Extralink PEGDA 2-ARM Acrylate crosslinker. These components were mixed in a 2:2:1 ratio by volume. 0.1% Irgacure photoinitiator (Sigma-Aldrich, Missouri, USA) was added to each of the three components prior to their mixture and the three components were placed in a 37° C. incubator for a ˜30 minutes to solubilize.
(§4) Forming Organoid Constructs: Once solubilized, the media was aspirated from the 15 mL centrifuge tube (post-centrifugation) and the cells were isolated as a pellet. The hydrogel components were added directly into the centrifuge tube containing the cells and the cells were carefully resuspended in the mixture. 10 μL of the gel-cell solution was placed in the center of the wells on the PDMS coating. This was continued for all wells containing cells and was repeated for each cell type. After this point, the gel can be exposed to UV light from a BlueWave 200 spot light (Dymax, Connecticut, USA) to solidify the hydrogel, or one can wait ˜30 minutes for the gel to form on its own. DMEM-10 media was then placed in the wells and the constructs were incubated for 5 days.
(§5) Anticancer Drug Screening and Cell Viability: The same five anticancer drugs were added on Day 5 and the cell viability assay occurred on Day 7.

HT29 cells = experiment: as above; details: Homo sapiens
Protocol: as §1, §2, §3, §4, §5

[1] = system: HCT116-CACO2 ringed constructs; experiment: Ringed organoid drug screening, live-dead stain; details: for % dead: % live ratio: drug day 5, stain day 7; for cell type targeted in ringed construct (live-dead images): inner HCT116 versus outer CACO2, day 7
Protocol: Polydimethylsiloxane, or PDMS, was again used to coat the bottom of the wells. HCT116 cells were embedded within hyaluronan hydrogel and constructs were created on the PDMS surface. CACO2 cells that were also embedded within hyaluronan gel were used to create the outer ring around the HCT116 inner-ring construct (FIG. 9, panel A).
A live-dead stain was carried out on the ringed-constructs on day 7 and imaged on an Axiovert microscope (FIG. 9, panel B). The imaging software, MATLAB, was used to generate a % dead: % live ratio (or % red (medium grey in black and white images): % green (light grey in black and white images)) for the ringed-constructs. The values were then graphed showing the ratios for each of the concentrations of Regorafenib and 5-FU and against the control, untreated ratio (FIG. 9, panel C). At 100 μM, Regorafenib and 5-FU both have % dead: % live ratios of 0.98. This means that approximately half of the HCT116 and CACO2 cells are alive and half have been targeted by the anticancer drugs. When analyzing the relative cellular viability when the 1 μM and 10 μM concentrations of Regorafenib and 5-FU were administered, the % dead: % live ratios are much greater for the 5-FU solutions than for the Regorafenib solutions. At 1 μM, the % dead: % live ratio is 0.95 for 5-FU as opposed to 0.48 for Regorafenib, and at 10 μM, the % dead: % live ratio is 0.78 for 5-FU as opposed to 0.08 for Regorafenib. The % dead: % live ratios for the three concentrations of Regorafenib and 5-FU were substantially higher than the control % dead: % live ratio value of only 0.03.
Hydrogel Components of the Ringed Organoid Constructs: The hyaluronic acid-based hydrogel used in making the ringed organoids was a mixture of four components: Heprasil, Gelin-S, and PEGDA 2-ARM Acrylate crosslinker (Extralink), and Alkyne-PEG-Alkyne 2-ARM crosslinker (ESI BIO, California, USA). These components were mixed in a 4:4:1:1 ratio by volume. 0.1% Irgacure photoinitiator was added to each of the four components prior to their mixture and the […] were placed in a 37° C. incubator for a ˜30 minutes to solubilize. HCT116 and CACO2 cells were isolated in the passaging method previously mentioned and PDMS was used to coat the bottom of the 96-well plates.
Forming Ringed-Organoid Constructs: The four components of the hydrogel were added to the 15 mL centrifuge tube containing the HCT116 cell pellet and the cells were resuspended within the mixture. 10 μL of the HCT116 containing hydrogel were placed in the center of the wells and left untouched with aluminum foil covering the 96-well plates for ˜35 minutes. During this time, the PEGDA 2-ARM Acrylate will crosslink the gel, while the UV-sensitive 2-ARM Alkyne-PEG-Alkyne will remain uncrosslinked.
While waiting for the PEGDA to crosslink, add the four hydrogel components to the 15 mL centrifuge tube containing the isolated CACO2 cells and resuspend the cells within the gel. Remove the aluminum foil wrapping on the 96-well plate and inspect the construct to see if they have solidified yet. If so, take 25 μL of the CACO2-embedded-hydrogel and carefully place in the area around the HCT116 construct. Use the pipette tip to physically move the CACO2 gel around the construct on all sides. Use UV light from BlueWave 200 spot light to crosslink both gels together to form a fused, ringed-construct. Add DMEM-10 media to fill up the wells.
Anticancer Drug Screening: On day 5, 1 μM, 10 μM, and 100 μM drug solutions of 5-FU were added to ringed constructs and 1 μM, 10 μM, and 100 μM drug solutions of Regorafenib were added to separate ringed constructs. Three duplicates were generated for each of the drug concentrations and a no-drug control was maintained as well.
Live-Dead Staining and Microscopy: On day 7, the ringed-constructs underwent a Live-Dead stain and the construct were imaged on an Axiovert 200M 487-1 microscope (Carl Zeiss AG, Oberkochen, Germany). […]

| Structure (SMILES) | viability at 10000 µM (SW480 cells; 10 mM, SW480, read-out: percent relative cell viability (MTS, relative to control)) [%] | viability at 100000 µM (SW480 cells; 100 mM, SW480, read-out: percent relative cell viability (MTS, relative to control)) [%] | viability at 10000 µM (HT29 cells; HT-29, 10 mM, HT29, read-out: percent relative cell viability (MTS, relative to control)) [%] | % dead: % live ratio ([1]; 1 μM) | % dead: % live ratio ([1]; 10 μM) | % dead: % live ratio ([1]; 100 μM) | cell type targeted in ringed construct (live-dead images) [1] | viability at 100 µM (SW480 cells; 100 μM, SW480, drug day 5, assay day 7, read-out: percent relative cell viability (MTS, relative to control)) [%] | viability at 100 µM (HT29 cells; HT-29, 100 μM, HT29, drug day 5, assay day 7, read-out: percent relative cell viability (MTS, relative to control)) [%] |
| --- | --- | --- | --- | --- | --- | --- | --- | --- | --- |
| O=c1[nH]cc(F)c(=O)[nH]1 [5-FU, 5-Fluorouracil] | 9 | 48 | 50 | 0.95 | 0.78 | 0.98 | targeting both cell types to similar degrees; also recorded: universal cell death of both HCT116 and CACO2 | – | – |
| CNC(=O)c1cc(Oc2ccc(NC(=O)Nc3ccc(Cl)c(C(F)(F)F)c3)c(F)c2)ccn1 [Regorafenib] | – | – | – | 0.48 | 0.08 | 0.98 | inner HCT116 cells were affected by Regorafenib to a greater extent than the CACO2 cells; also recorded: targeted cell death of HCT116 | < 25 | < 25 |
